Test results from ChEMBL document CHEMBL5143603, “Discovery of novel 2,8-diazaspiro[4.5]decan-1-one derivatives as potent RIPK1 kinase inhibitors” (Bioorg Med Chem, 2022).

Columns and labels:
[1] = biological target: T1, Receptor-interacting serine/threonine-protein kinase 1 (Homo sapiens, UniProt Q13546); test: Inhibition of human RIPK1 incubated for 40 min in presence of ATP by ADP-Glo luminescence kinase assay
T1 sequence (Q13546 whole entry): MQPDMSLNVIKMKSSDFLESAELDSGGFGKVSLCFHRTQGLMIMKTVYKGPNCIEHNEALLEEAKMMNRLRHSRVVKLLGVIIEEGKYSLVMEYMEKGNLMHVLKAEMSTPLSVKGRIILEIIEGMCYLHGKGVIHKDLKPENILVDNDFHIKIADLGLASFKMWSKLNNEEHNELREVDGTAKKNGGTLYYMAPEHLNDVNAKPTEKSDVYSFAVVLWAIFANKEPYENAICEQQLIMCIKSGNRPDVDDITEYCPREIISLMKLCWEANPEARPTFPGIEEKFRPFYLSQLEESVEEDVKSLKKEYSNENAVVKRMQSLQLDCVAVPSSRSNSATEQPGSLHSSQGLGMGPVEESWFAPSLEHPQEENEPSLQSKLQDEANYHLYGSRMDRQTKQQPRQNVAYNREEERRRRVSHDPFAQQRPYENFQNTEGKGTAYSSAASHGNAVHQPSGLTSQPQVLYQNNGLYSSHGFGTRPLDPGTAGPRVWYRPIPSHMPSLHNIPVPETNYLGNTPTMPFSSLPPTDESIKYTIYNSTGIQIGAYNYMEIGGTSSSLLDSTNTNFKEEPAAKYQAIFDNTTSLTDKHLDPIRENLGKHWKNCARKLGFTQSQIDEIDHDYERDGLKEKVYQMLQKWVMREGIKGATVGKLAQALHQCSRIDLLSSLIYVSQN

U-937 [2] = test: Anti-necroptotic activity in human U-937 cells assessed as inhibition of LPS/Z-VAD-fmk (LSZ)-induced necroptosis preincubated with PMA followed by compound addition and measured after 9 hrs by CCK8 assay; type: functional, cell-based; details: DDE = dose-dependent effect
U-937 [3] = test: Anti-necroptotic activity in human U-937 cells assessed as decrease in phosphorylation of MLKL level preincubated with PMA and LPS followed by compound addition and measured after 9 hrs by western blot analysis; type: functional, cell-based; details: DDE = dose-dependent effect

Row | SMILES | IC50 [1] | Activity (U-937 [2]) | Activity (U-937 [3])
1 | CCC(C)(C)C(=O)N(O)Cc1ccccc1 | 298 nM |  | 
2 | O=C(c1ccccc1)N1CCC2(CC1)CN(Cc1ccccc1)C2=O | 1010 nM |  | 
3 | Cn1ccc2ccc(C(=O)N3CCC4(CC3)CCN(Cc3cc(F)ccc3F)C4=O)cc21 |  | Dde | Dde
4 | CN1C(=O)C(Cc2c[nH]c3ccccc23)NC1=S (stereo not given) [NECROSTATIN] | 1140 nM |  | 
